Assay: pH of 1% aqueous solution
Assay type: physicochemical
Details: polyoxyethylene alkyl ether carboxylate

With NaOH the “pH of 1% aqueous solution, 60% neutralization” value (60% neutralization) was “about 5.7”, the “pH of 1% aqueous solution, 90% neutralization” value (90% neutralization) was “about 6.5” and the “pH of 1% aqueous solution, 100% neutralization” value (100% neutralization) was “about 7.8”.

— patent publication US12138329B2, “Gel cleansing agent” (SHISEIDO HONEYCAKE INDUSTRIES CO., LTD., priority 2019, dated 2024)
